Test results as given in US20170105981A1, “METHODS FOR STABILIZING HYPOXIA INDUCIBLE FACTOR-2 ALPHA AS A METHOD FOR TREATING CANCER” (The Ohio State Innovation Foundation, priority 2011, published 2017).

Tested on: A2780/CP tumor cells
Assay: A2780/CP ovarian tumor xenograft model
Assay type: in vivo, female athymic nude mice
Procedure: The compound tested, {[5-(3-fluorophenyl)-3-hydroxypyridine-2-carbonyl]-amino} acetic acid, was formulated in a 0.25% hydroxypropyl methyl cellulose/0.1% Tween™ 80 solution in reverse osmosis deionized water. The test compound was reconstituted at concentrations of 1.8 and 3.6 mg/ml as instructed on each vial to deliver doses of 18 and 36 mg/kg, respectively, at a […] dose volume. Solutions of the test compound were prepared weekly and stored at 4° C. protected from light. All formulations were removed from the refrigerator and stirred for 30 minutes before dosing, and continuously stirred during dosing.
The vehicle control was prepared by making a solution of 0.25% hydroxypropyl methyl cellulose/0.1% Tween™ 80 solution in reverse osmosis deionized water.
A2780/CP ovarian tumor cell line was received from Sigma-Aldrich (St. Louis, Mo.). Cultures were maintained in RPMI 1640 (Hyclone, Logan, Utah), supplemented with 10% fetal bovine serum, and housed in a 5% CO2 atmosphere. The cultures were expanded in tissue culture flasks at a 1:3 split ratio until a sufficient yield of cells was achieved.
Female athymic nude mice were supplied by Harlan (Indianapolis, Ind.). Mice were received at four to five weeks of age, 12-15 grams in weight, and were acclimated for seven days prior to handling. The mice were housed in microisolator cages and maintained under specific pathogen-free conditions. The mice were fed Tekland Global Diet™ 2920x irradiated laboratory animal diet (Harlan, Indianapolis, Ind.) and autoclaved water was freely available.
Sixty female mice were inoculated subcutaneously in the right flank with 0.1 ml of a 50% RPMI/50% Matrigel™ (BD Biosciences, Bedford, Mass.) mixture containing a suspension of A2780/CP tumor cells (approximately 1.0×10^7 cells/mouse).
Three days following inoculation, tumors were measured using calipers and tumor weight was calculated using the animal study management software. Thirty mice with tumor sizes of 80.4-170.6 mg were randomized into three groups often mice (Groups 1-3) by random equilibration. Body weights were recorded when the mice were randomized and were taken twice per week thereafter in conjunction with tumor measurements.
Animals were treated until the study endpoint. Group I received only vehicle (control). Group II was given doses of 1.8 mg/mL {[5-(3-fluorophenyl)-3-hydroxypyridine-2-carbonyl]-amino} acetic acid while Group III was given doses of 3.6 mg/mL {[5-(3-fluorophenyl)-3-hydroxypyridine-2-carbonyl]-amino} acetic acid. All doses were given via oral administration (PO). The administered volume of each dose was approximately 1 mL/100 g body weight of animal.
Tumor mass (mg) was determined using the formula:
where “a” is the largest diameter and “b” is the smallest diameter. Measurements were made using calipers. The mean tumor size when study began was 100-125 mg. On day one of the study, animals were randomly assigned to the three groups described above.
Tumors were collected from Groups 1-3 of the main study when individual tumors reached a tumor weight of ≧2000 mg by using the procedure above. Tumor size measurements and animal body weight were taken twice weekly.

## O=C(O)CNC(=O)c1ncc(-c2cccc(F)c2)cc1O [disclosed HIF-2α stabilizer, {[5-(3-Fluorophenyl)-3-hydroxypyridine-2-carbonyl]amino} acetic acid]
18 mg/kg QD PO, study day 1
  Mean Tumor Mass: 119.6 mg
  Median Tumor Mass: 121.3 mg
18 mg/kg QD PO, study day 4
  Mean Tumor Mass: 188.2 mg
  Median Tumor Mass: 191.0 mg
  No. Surviving Animals: 10
  Wgt % change: −0.31%
18 mg/kg QD PO, study day 8
  Mean Tumor Mass: 326.9 mg
  Median Tumor Mass: 243.8 mg
  No. Surviving Animals: 10
  Wgt % change: 4.40%
18 mg/kg QD PO, study day 11
  Mean Tumor Mass: 682.8 mg
  Median Tumor Mass: 528.0 mg
  No. Surviving Animals: 10
  Wgt % change: 6.02%
18 mg/kg QD PO, study day 16
  Mean Tumor Mass: 2508.0 mg
  Median Tumor Mass: 1826.2 mg
  No. Surviving Animals: 10
  Wgt % change: 16.40%
18 mg/kg QD PO, study day 19
  Mean Tumor Mass: 2647.4 mg
  Median Tumor Mass: 3030.1 mg
  No. Surviving Animals: 6
  Wgt % change: 16.82%
18 mg/kg QD PO, study day 22
  Mean Tumor Mass: 1761.6 mg
  Median Tumor Mass: 1761.6 mg
  No. Surviving Animals: 1
  Wgt % change: 19.43%
18 mg/kg QD PO, study day 25
  Mean Tumor Mass: 2838.3 mg
  Median Tumor Mass: 2838.3 mg
  No. Surviving Animals: 1
  Wgt % change: 19.43%
36 mg/kg QD PO, study day 1
  Mean Tumor Mass: 120.3 mg
  Median Tumor Mass: 123.3 mg
36 mg/kg QD PO, study day 4
  Mean Tumor Mass: 186.4 mg
  Median Tumor Mass: 182.8 mg
  No. Surviving Animals: 10
  Wgt % change: −0.41%
36 mg/kg QD PO, study day 8
  Mean Tumor Mass: 312.8 mg
  Median Tumor Mass: 323.4 mg
  No. Surviving Animals: 10
  Wgt % change: 4.04%
36 mg/kg QD PO, study day 11
  Mean Tumor Mass: 708.1 mg
  Median Tumor Mass: 830.4 mg
  No. Surviving Animals: 10
  Wgt % change: 5.48%
36 mg/kg QD PO, study day 16
  Mean Tumor Mass: 2354.5 mg
  Median Tumor Mass: 2441.8 mg
  No. Surviving Animals: 10
  Wgt % change: 15.86%
36 mg/kg QD PO, study day 19
  Mean Tumor Mass: 1858.8 mg
  Median Tumor Mass: 1568.0 mg
  No. Surviving Animals: 4
  Wgt % change: 12.79%
36 mg/kg QD PO, study day 22
  Mean Tumor Mass: 2456.9 mg
  Median Tumor Mass: 2384.6 mg
  No. Surviving Animals: 3
  Wgt % change: 8.50%
18 and 36 mg/kg QD PO vs control group, FIGS. 7 to 9, Table I
  rate of tumor mass growth: significantly reduced
